For series [1], the target named is T1, α7 nAChR (Homo sapiens, UniProt P36544).
T1 construct: expressed in transfected cells; host or cells: Xenopus oocytes (cRNA injection)
Description: α7 nAChR positive allosteric modulator activity assay, voltage clamp in Xenopus oocytes with 100 μM ACh. In kind it is cell-based. To be noted: for activity at 10 µM: at 10 μM compound, current induced by 100 μM ACh, Xenopus oocytes expressing α7 nAChR, read-out: Max Mod (%, at 10 μM). Here is the method: The experimental process was as follows:
(1) Xenopus oocytes were injected with cRNA encoding α7 nAChR in order to express α7 nAChR on the cell membrane successfully;
(2) 100 μM ACh alone was added, and the α7 nAChR characteristic current caused by it was recorded as a control;
(5) The oocytes were incubated for 1 min with 10 μM compound, then 10 µM compound and 100 μM ACh were added simultaneously and the current induced by ACh was recorded at this time;
(6) The differences between the two currents in terms of peak intensity and duration were compared, with the ratio of peak intensity of the two currents representing the adjustment effect (Enhance Rate), in order to determine whether the compound had PAM activity, if the activity was good, then the subsequent test was carried out;
(7) Concentration gradient was set and the effects of compounds at different concentrations on the α7 nAChR characteristic current induced by 100 μM ACh were evaluated. Several determinations were carried out at the same concentration, and the results were presented in the form of “mean±standard deviation”;
(8) The EC50 (median maximum effect concentration) values and Max mod (the current amplitude caused by the maximal degree of adjustable endogenous agonist acetylcholine) values of the compounds and other activity data were obtained by Hill equation Inormalized=Emax/(1+(EC50/C)nH).
The amplitude of the peak current is only normalized by the amplitude produced by 100 μM ACh and different concentrations of LD486. […] It can be seen from FIG. 3 that the Hill equation is used to fit the dose-response curve and calculate the kinetic parameters.

The target in series [2] is T2, α4β2 receptors (Homo sapiens, UniProt P17787+P43681).
T2 construct: expressed in transfected cells; host or cells: Xenopus oocytes
In words: Two-electrode voltage clamp in Xenopus oocytes, α4β2 receptor. In kind it is cell-based. To be noted: 10 μM LD486, pre-stimulated 60 seconds, 10 μM ACh. Here is the method:
(§1) FIGS. 4A and B show the response intensity curves of Xenopus oocytes stimulated by only […] Ach to α4β2 and α3β4 in the left panel, respectively.
(§2) FIGS. 4A and B show the response intensity curves of Xenopus oocytes stimulated by 10 μM ACh and […] LD486 to α4β2 and α3β4 in the right panel, respectively. Xenopus oocytes are pre-stimulated with 10 μM LD486 for 60 seconds.
(§3) Used as exogenous expression system, Xenopus oocytes are injected with different α subunits and β subunits at 1:1 ratio.
Background: In two-electrode clamp one electrode senses voltage and the other passes current.

The target of series [3] is T3, hERG (human ether-a-go-go related gene) channel (Homo sapiens, UniProt Q12809).
T3 construct: expressed in transfected cells; host or cells: CHO (Chinese hamster ovary) cell lines
In words: Automatic patch clamp Qplate-16 assay, hERG channel expressed on CHO cell lines. The format is cell-based. To be noted: CHO cells. The source says:
In the absence of LD486 or cisapride or in the presence of LD486 or cisapride at different concentrations, drug-related hERG potassium channel inhibition can lead to ventricular delayed repolarization (long QT interval syndrome), which may lead to a current intensity of fatal arrhythmia such as torsades de pointes, and even sudden death.
Background: In patch-clamp work, channel activity is measured electrically.

Series [4] addresses T4, α3β4 receptors (Homo sapiens, UniProt P30926+P32297).
T4 construct: expressed in transfected cells; host or cells: Xenopus oocytes
Description: Two-electrode voltage clamp in Xenopus oocytes, α3β4 receptor. The format is cell-based. To be noted: 10 μM LD486, pre-stimulated 60 seconds, 10 μM ACh. The procedure: as §1, §2, §3

Series [5] has as its target T5, α7 nAChR (Rattus norvegicus, UniProt Q05941).
T5 construct: from tissue; host or cells: rat brain (hippocampus) cell membranes
In words: Radioisotope ligand binding assay, displacement of [3H]-Methyllycaconitine bound to rat brain cell membrane. (In general: In a radioligand displacement assay an active substance lowers the binding of a labelled ligand.)

The mark [6] stands for this setting: potentiation of current induced by 100 μM ACh, Hill equation fit.

“Also recorded” adds a separate entry of the source.

T3 sequence (Q12809 whole entry): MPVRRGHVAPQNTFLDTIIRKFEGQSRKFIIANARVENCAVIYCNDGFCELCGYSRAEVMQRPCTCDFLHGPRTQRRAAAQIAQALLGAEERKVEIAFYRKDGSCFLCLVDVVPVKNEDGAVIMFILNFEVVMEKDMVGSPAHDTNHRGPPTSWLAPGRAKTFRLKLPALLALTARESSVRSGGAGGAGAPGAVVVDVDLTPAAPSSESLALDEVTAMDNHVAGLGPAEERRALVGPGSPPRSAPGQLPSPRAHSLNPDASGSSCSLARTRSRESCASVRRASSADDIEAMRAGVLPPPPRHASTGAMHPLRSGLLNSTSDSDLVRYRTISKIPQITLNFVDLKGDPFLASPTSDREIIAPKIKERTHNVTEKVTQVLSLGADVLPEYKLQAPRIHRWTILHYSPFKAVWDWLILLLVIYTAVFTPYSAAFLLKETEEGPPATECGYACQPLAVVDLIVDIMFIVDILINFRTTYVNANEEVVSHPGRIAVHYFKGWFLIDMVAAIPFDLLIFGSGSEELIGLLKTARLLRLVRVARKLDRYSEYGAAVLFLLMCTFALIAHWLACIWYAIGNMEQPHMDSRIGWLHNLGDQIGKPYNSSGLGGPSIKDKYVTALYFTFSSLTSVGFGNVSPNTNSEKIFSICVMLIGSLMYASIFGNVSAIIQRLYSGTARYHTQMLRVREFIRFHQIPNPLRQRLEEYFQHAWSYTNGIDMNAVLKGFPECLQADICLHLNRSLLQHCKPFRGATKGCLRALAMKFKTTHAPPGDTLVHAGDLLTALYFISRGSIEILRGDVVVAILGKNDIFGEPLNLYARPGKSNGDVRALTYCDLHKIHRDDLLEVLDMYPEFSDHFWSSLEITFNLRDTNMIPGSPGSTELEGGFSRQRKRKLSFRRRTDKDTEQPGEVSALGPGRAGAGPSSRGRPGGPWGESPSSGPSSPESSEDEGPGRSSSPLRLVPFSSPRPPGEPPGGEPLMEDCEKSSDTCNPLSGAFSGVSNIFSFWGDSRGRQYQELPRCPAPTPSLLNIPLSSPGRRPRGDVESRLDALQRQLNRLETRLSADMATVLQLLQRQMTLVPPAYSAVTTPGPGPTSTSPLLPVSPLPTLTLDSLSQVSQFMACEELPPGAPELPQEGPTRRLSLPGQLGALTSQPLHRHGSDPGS
T1 sequence (P36544 23-502): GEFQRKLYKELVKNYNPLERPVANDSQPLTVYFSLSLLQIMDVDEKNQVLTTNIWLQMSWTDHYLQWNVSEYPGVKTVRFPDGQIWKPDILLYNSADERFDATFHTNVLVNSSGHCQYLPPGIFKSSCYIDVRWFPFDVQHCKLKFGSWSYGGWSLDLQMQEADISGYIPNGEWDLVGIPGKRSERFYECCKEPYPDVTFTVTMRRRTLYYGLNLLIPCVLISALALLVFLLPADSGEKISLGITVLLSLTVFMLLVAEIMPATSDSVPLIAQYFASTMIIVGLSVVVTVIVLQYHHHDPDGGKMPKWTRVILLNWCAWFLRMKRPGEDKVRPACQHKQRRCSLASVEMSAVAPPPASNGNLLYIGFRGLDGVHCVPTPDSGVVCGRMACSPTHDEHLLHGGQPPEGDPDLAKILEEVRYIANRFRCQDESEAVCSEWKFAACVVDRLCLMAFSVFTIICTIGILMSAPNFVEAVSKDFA
T2 sequence (P43681 29-627 limits assumed): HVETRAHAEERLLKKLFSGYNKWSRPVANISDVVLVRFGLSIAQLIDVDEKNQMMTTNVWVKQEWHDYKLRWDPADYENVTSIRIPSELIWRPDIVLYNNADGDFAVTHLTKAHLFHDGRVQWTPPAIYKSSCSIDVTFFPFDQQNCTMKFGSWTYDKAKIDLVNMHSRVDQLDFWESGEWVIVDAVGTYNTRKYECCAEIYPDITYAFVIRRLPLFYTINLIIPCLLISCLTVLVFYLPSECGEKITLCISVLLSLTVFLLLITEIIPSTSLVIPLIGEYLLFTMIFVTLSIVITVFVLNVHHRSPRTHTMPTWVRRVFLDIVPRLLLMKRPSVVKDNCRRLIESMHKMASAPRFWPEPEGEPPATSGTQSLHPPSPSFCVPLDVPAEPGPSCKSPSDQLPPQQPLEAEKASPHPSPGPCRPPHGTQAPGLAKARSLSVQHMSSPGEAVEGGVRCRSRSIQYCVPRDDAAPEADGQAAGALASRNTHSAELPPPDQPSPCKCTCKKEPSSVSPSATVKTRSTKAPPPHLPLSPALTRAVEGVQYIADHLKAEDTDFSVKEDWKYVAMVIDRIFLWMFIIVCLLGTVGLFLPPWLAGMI
T2 sequence (P17787 26-502): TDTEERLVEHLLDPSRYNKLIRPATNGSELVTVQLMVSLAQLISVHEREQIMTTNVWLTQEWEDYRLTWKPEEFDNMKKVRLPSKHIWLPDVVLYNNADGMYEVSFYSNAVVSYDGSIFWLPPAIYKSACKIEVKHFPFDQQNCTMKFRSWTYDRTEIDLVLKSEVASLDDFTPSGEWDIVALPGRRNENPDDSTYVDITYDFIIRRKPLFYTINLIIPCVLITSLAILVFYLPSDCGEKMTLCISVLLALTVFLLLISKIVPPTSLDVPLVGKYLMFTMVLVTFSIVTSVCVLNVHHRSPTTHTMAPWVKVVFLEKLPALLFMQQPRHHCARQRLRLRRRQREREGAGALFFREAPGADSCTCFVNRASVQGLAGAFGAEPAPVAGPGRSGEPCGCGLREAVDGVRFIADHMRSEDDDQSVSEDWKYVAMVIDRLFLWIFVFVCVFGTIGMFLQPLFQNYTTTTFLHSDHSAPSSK
T5 sequence (Q05941 23-502): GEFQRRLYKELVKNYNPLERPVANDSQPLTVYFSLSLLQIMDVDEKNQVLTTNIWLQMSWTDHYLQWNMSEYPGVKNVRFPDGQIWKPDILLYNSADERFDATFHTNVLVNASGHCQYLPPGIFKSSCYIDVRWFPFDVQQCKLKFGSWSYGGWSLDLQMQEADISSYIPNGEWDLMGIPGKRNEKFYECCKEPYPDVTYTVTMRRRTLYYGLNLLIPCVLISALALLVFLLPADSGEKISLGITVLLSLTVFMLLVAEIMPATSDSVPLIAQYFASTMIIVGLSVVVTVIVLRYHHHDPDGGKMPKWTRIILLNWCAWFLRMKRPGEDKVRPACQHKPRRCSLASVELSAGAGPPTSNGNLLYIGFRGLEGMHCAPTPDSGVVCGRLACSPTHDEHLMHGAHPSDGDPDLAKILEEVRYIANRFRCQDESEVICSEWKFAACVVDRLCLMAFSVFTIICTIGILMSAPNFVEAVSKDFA
T4 sequence (P32297 32-505): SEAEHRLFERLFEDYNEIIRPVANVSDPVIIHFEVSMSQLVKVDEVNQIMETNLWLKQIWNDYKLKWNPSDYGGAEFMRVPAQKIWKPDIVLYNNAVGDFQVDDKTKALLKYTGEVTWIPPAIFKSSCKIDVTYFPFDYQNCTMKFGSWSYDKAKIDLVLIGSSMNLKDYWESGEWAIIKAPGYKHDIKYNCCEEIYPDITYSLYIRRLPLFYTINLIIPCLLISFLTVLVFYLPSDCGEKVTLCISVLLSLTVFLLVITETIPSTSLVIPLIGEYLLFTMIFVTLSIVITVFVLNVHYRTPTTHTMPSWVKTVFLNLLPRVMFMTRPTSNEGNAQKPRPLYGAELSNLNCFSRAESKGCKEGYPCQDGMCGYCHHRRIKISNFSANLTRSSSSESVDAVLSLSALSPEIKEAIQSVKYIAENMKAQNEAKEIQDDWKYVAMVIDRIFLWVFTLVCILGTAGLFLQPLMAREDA
T4 sequence (P30926 22-498): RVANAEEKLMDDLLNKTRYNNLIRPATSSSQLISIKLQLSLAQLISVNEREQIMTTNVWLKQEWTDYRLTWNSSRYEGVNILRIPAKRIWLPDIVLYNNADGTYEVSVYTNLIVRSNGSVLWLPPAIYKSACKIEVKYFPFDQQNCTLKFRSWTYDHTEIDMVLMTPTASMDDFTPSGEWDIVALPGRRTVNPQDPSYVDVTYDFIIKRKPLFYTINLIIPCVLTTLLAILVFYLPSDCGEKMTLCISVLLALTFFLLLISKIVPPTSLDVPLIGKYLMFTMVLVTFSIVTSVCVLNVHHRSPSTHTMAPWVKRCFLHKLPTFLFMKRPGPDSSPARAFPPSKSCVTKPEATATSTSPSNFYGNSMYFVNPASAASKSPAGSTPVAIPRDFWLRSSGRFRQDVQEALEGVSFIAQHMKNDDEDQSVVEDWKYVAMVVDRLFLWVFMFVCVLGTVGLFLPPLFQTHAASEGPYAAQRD

Turning to `Cc1nc(Cl)cc(Nc2nc3ncn(-c4c(C)cccc4Cl)c(=O)c3s2)n1` [LD486, 2-((6-Chloro-2-methylpyrimidin-4-yl)amino)-6-(2-chloro-6-methylphenyl)thiazolo[4,5-d]pyrimidin-7(6H)-one], in series [1] (FIG. 3, Hill equation fit), the “maximal degree of adjustable endogenous agonist ACh current amplitude” value is listed as “about 3.2 times”. For the same molecule, the Hill coefficient – broadly, a measure of the steepness of the concentration-response curve – in series [1] (FIG. 3, n=6) is 1.4±0.2. Besides, in series [1] (FIG. 3, normalized to 100 μM ACh, repeated 6 times), the Emax (in general, the maximal effect, on the per cent scale that the assay sets) is 320%. The half-maximal effective concentration (EC50) (usually the concentration at which the effect is half-maximal) in series [1] (FIG. 3 concentration response curve, 100 μM ACh, n=6) stood at 3.2 ± 0.3 µM. For the same molecule, in series [1] (LD486 0.1-10 μM alone, without ACh, FIG. 2), the “induction of α7 nAChR characteristic current by compound alone” value is given as “does not induce”. Further, the activity at 10 µM in series [1] is 320%. Besides, the “current amplitude induced by 100 μM ACh compared with the control group” value in series [1] (incubation 1 min, then same concentration of LD486 plus 100 μM ACh, FIG. 2) is listed as “significantly increased”. Further, in series [1] (summary statement, read-out: Ki value as an α7nAChR PAM), the Ki (in general, the dissociation constant of the complex between target and ligand, obtained from inhibition or displacement) was around 3 µM. Moreover, in series [2], the “effect on current of α4β2 receptors” value is given as “did not increase; also recorded: no significant effect”. Also, the “inhibitory effect on the hERG channel” value in series [3] is listed as “no inhibitory effect; also recorded: slight inhibitory effect”. Besides, in series [4], the “effect on current of α3β4 receptors” value was “did not increase; also recorded: no significant effect”. Moreover, in series [5] (concentration increased to 10 μM, hippocampus of rats), the “effect on binding of [3H]-MLA to α7 nAChR” value is recorded as “does not affect; also recorded: not reduced”.

`COc1ccc(Sc2nc3ncn(-c4c(C)cccc4Cl)c(=O)c3s2)cc1` [LYH150909, 6-(2-Chloro-6-methylphenyl)-2-((4-methoxyphenyl)thio)thiazolo[4,5-d]pyrimidin-7(6H)-one]: in series [1], the activity at 10 µM amounted to 110%.

`Cc1cccc(Cl)c1-n1cnc2nc(Sc3ccccc3)sc2c1=O` [LYH151120, 6-(2-Chloro-6-methylphenyl)-2-(phenylthio)thiazolo[4,5-d]pyrimidin-7(6H)-one]: the activity at 10 µM in series [1] was 380%. Besides, the 50% effective concentration (EC50) in series [1] (setting [6]) stood at 10 µM.

Turning to `Cc1cccc(Cl)c1-n1cnc2nc(Sc3cccc(F)c3)sc2c1=O` [LYH151215, 6-(2-Chloro-6-methylphenyl)-2-((3-fluorophenyl)thio)thiazolo[4,5-d]pyrimidin-7(6H)-one], the EC50 in series [1] (setting [6]) amounted to 10 µM.

Molecule `O=C(N[C@H]1CN2CCC1CC2)c1ccc(Cl)cc1` [PNU-282987, reference compound] came in with a Ki in series [5] (displacement of [3H]-MLA, rat brain cell membrane, FIG. 1) of 0.0341 ± 0.0043 µM.

The values above are taken from US10450326B2, “Thiazolopyrimidinone compounds and preparation methods and use thereof” (PEKING UNIVERSITY, priority 2015, dated 2019).
